Earlier results on one compound are cited in PubChem BioAssay AID1259409 (Chemical Carcinogenesis Research Information System (CCRIS), 2018).

Structures are written as SMILES.

The data set has as its system rodent chemically induced tumor inhibition, incidence and multiplicity. The data set can be described thus: CCRIS tumor inhibitor studies.

In the case of `CC(=O)Oc1ccccc1C(=O)O`, the “tumour outcome (control, treated, inhibition, significance)” value reads like this: (Carcinogen: 1,2-DIMETHYLHYDRAZINE DIHYDROCHLORIDE, 306-37-6, Dose [Inhibitor]: 0, 10 MG/KG/D IN 0.2 ML OF 5% SODIUM BICARBONATE FOR 1 WK PRIOR +0 AND 1 WK POST CARCINOGEN DOSE (STUDY DURATION: 36 WK), Route [Inhibitor]: SUBCUTANEOUS, Species: RAT, Strain/Sex: SPRAGUE-DAWLEY/MALE, Target Tissue: Type of Lesion: COLON: ADENOCARCINOMA, Dose [Carcinogen]: 30 MG/KG ONCE, Promoter: NONE USED) 50%, 17%, 66%, p<0.05; (Carcinogen: 1,2-DIMETHYLHYDRAZINE DIHYDROCHLORIDE, 306-37-6, Dose [Inhibitor]: 0, 50 MG/KG/D IN 0.6 ML OF 5% SODIUM BICARBONATE BEGINNING 4 WK POST CARCINOGEN DOSE AND CONTINUING FOR DURATION OF STUD, Route [Inhibitor]: SUBCUTANEOUS, Species: RAT, Strain/Sex: SPRAGUE-DAWLEY/MALE, Target Tissue: Type of Lesion: COLON: ADENOCARCINOMA, Dose [Carcinogen]: 30 MG/KG ONCE, Promoter: NONE USED) 42%, 42%, 0%, not significant; (Carcinogen: 2-AMINO-1-METHYL-6-PHENYLIMIDAZO[4,5-B]PYRIDINE [105650-23-5], Dose [Inhibitor]: 400 PPM IN DIET FOR 4 WK BEGINNING WK PRIOR TO FIRST CARCINOGEN DOSE (STUDY DURATION: 25 WK), Route [Inhibitor]: ORAL, Species: RAT, Strain/Sex: SPRAGUE-DAWLEY/FEMALE, Target Tissue: Type of Lesion: MAMMARY GLAND: FIBROADENOMA OR DUCTAL CARCINOMA, Dose [Carcinogen]: 85 MG/KG BW 2X/WK FOR 4 WK (STUDY DURATION: 25 WK), Promoter: NONE) 67.7%, 50.0%, 26%, not significant; (Carcinogen: 2-AMINO-1-METHYL-6-PHENYLIMIDAZO[4,5-B]PYRIDINE, 105650-23-5, Dose [Inhibitor]: 0, 400 PPM IN HIGH FAT DIET FOR 4 WK BEGINNING 1 WK PRIOR TO CARCINOGEN TREATMENT (STUDY DURATION: 25 WK), Route [Inhibitor]: ORAL, Species: RAT, Strain/Sex: SPRAGUE-DAWLEY/FEMALE, Target Tissue: Type of Lesion: MAMMARY GLAND: CARCINOMA, Dose [Carcinogen]: 85 MG/KG BW IN CORN OIL 8 TIMES IN 10 D, Promoter: NONE USED) 21/31 (68%), 14/30 (47%), 31%, not significant; (Carcinogen: 2-AMINO-1-METHYL-6-PHENYLIMIDAZO[4,5-B]PYRIDINE, 105650-23-5, Dose [Inhibitor]: 0, 400 PPM IN HIGH FAT DIET FOR 4 WK BEGINNING 1 WK PRIOR TO CARCINOGEN TREATMENT (STUDY DURATION: 25 WK), Route [Inhibitor]: ORAL, Species: RAT, Strain/Sex: SPRAGUE-DAWLEY/FEMALE, Target Tissue: Type of Lesion: MAMMARY GLAND: FIBROADENOMA, Dose [Carcinogen]: 85 MG/KG BW IN CORN OIL 8 TIMES IN 10 D, Promoter: NONE USED) 3/31 (10%), 2/30 (7%), 30%, not significant; (Carcinogen: 4-(METHYLNITROSAMINO)-1-(3-PYRIDYL)-1-BUTANONE, 64091-91-4, Dose [Inhibitor]: 0, 32 MG/KG BW BUFFERED ASPIRIN IN DIET FOR DURATION OF STUDY BEGINNING 2 WK PRIOR TO CARCINOGEN TREATMENT (STUDY DURATI, Route [Inhibitor]: ORAL, Species: MOUSE, Strain/Sex: STRAIN-A/FEMALE, Target Tissue: Type of Lesion: LUNG: TUMOR, Dose [Carcinogen]: 9.1 MG/MOUSE (TOTAL DOSE) ADMINISTERED IN DRINKING WATER OVER 7 WK, Promoter: NONE USED) 23/24 (96%), 15/15 (100%), -4%, not significant. In addition, the “tumour outcome (control, treated, inhibition, significance)” value reads like this: (Carcinogen: 4-(METHYLNITROSAMINO)-1-(3-PYRIDYL)-1-BUTANONE, 64091-91-4, Dose [Inhibitor]: 0, 32 MG/KG BW NON-BUFFERED ASPIRIN IN DIET FOR DURATION OF STUDY BEGINNING 2 WK PRIOR TO CARCINOGEN TREATMENT (STUDY DU, Route [Inhibitor]: ORAL, Species: MOUSE, Strain/Sex: STRAIN-A/FEMALE, Target Tissue: Type of Lesion: LUNG: TUMOR, Dose [Carcinogen]: 9.1 MG/MOUSE (TOTAL DOSE) ADMINISTERED IN DRINKING WATER OVER 7 WK, Promoter: NONE USED) 23/24 (96%), 14/14 (100%), -4%, not significant; (Carcinogen: 4-(METHYLNITROSAMINO)-1-(3-PYRIDYL)-1-BUTANONE, 64091-91-4, Dose [Inhibitor]: 0, 35 MG/KG BW IN DIET FOR DURATION OF STUDY BEGINNING 2 WK PRIOR TO CARCINOGEN TREATMENT (STUDY DURATION: 25 WK), Route [Inhibitor]: ORAL, Species: MOUSE, Strain/Sex: STRAIN-A/FEMALE, Target Tissue: Type of Lesion: LUNG: TUMOR, Dose [Carcinogen]: 9.1 MG/MOUSE (TOTAL DOSE) ADMINISTERED IN DRINKING WATER OVER 7 WK, Promoter: NONE USED) 23/24 (96%), 14/15 (93%), 3%, not significant; (Carcinogen: 4-(METHYLNITROSAMINO)-1-(3-PYRIDYL)-1-BUTANONE, 64091-91-4, Dose [Inhibitor]: 0, 73 MMOL/KG BW/D IN DIET FOR DURATION OF STUDY BEGINNING 2 WK PRIOR TO CARCINOGEN TREATMENT (STUDY DURATION: 25 WK), Route [Inhibitor]: ORAL, Species: MOUSE, Strain/Sex: STRAIN-A/FEMALE, Target Tissue: Type of Lesion: LUNG: TUMOR, Dose [Carcinogen]: 2.2 MMOL/KG BW (TOTAL DOSE) ADMINISTERED IN DRINKING WATER FOR 7 WK, Promoter: NONE USED) 29/29 (100%), 25/25 (100%), 0%, not significant; (Carcinogen: 4-(METHYLNITROSAMINO)-1-(3-PYRIDYL)-1-BUTANONE, 64091-91-4, Dose [Inhibitor]: 0, 147 MMOL/KG BW/D IN DIETS FOR DURATION OF STUDY BEGINNING 2 WK PRIOR TO CARCINOGEN TREATMENT (STUDY DURATION: 25 WK), Route [Inhibitor]: ORAL, Species: MOUSE, Strain/Sex: STRAIN-A/FEMALE, Target Tissue: Type of Lesion: LUNG:TUMOR, Dose [Carcinogen]: 2.2 MMOL/KG BW (TOTAL DOSE) ADMINISTERED IN DRINKING WATER FOR 7 WK, Promoter: NONE USED) 29/29 (100%), 24/24 (100%), 0%, not significant; (Carcinogen: 4-(METHYLNITROSAMINO)-1-(3-PYRIDYL)-1-BUTANONE, 64091-91-4, Dose [Inhibitor]: 0, 294 MG/KG DIET FOR DURATION OF STUDY BEGINNING 2 WK PRIOR TO CARCINOGEN TREATMENT (STUDY DURATION: 25 WK), Route [Inhibitor]: ORAL, Species: MOUSE, Strain/Sex: STRAIN-A/FEMALE, Target Tissue: Type of Lesion: LUNG: TUMOR, Dose [Carcinogen]: 9.1 MG/MOUSE IN DRINKING WATER FOR 7 WK, Promoter: NONE USED) 29/29 (100%), 24/24 (100%), 0%, not significant; (Carcinogen: 4-(METHYLNITROSAMINO)-1-(3-PYRIDYL)-1-BUTANONE, 64091-91-4, Dose [Inhibitor]: 0, 294 MMOL/KG BW/D IN DIET FOR DURATION OF STUDY BEGINNING 2 WK PRIOR TO CARCINOGEN TREATMENT (STUDY DURATION: 25 WK), Route [Inhibitor]: ORAL, Species: MOUSE, Strain/Sex: STRAIN-A/FEMALE, Target Tissue: Type of Lesion: LUNG: TUMOR, Dose [Carcinogen]: 2.2 MMOL/KG BW (TOTAL DOSE) ADMINISTERED IN DRINKING WATER FOR 7 WK, Promoter: NONE USED) 29/29 (100%), 24/24 (100%), 0%, not significant. Also, the “tumour outcome (control, treated, inhibition, significance)” value is, setting by setting: (Carcinogen: 4-(METHYLNITROSAMINO)-1-(3-PYRIDYL)-1-BUTANONE, 64091-91-4, Dose [Inhibitor]: 0, 588 MMOL/KG BW/D IN DIET FOR DURATION OF STUDY BEGINNING 2 WK PRIOR TO CARCINOGEN TREATMENT (STUDY DURATION: 25 WK), Route [Inhibitor]: ORAL, Species: MOUSE, Strain/Sex: STRAIN-A/FEMALE, Target Tissue: Type of Lesion: LUNG: TUMOR, Dose [Carcinogen]: 2.2 MMOL/KG BW (TOTAL DOSE) ADMINISTERED IN DRINKING WATER FOR 7 WK, Promoter: NONE USED) 29/29 (100%), 24/24 (100%), 0%, not significant; (Carcinogen: 7,12-DIMETHYLBENZ[A]ANTHRACENE, 57-97-6, Dose [Inhibitor]: 0.6% NEUTRALIZED WITH 12 MG SODIUM CARBONATE DAILY (STUDY DURATION: 14 WK), Route [Inhibitor]: ORAL, Species: HAMSTER, Strain/Sex: SYRIAN/FEMALE, MALE, Target Tissue: Type of Lesion: BUCCAL CELLS: EPIDERMOID TUMORS, Dose [Carcinogen]: 0.5% SOLUTION IN MINERAL OIL 3/WK FOR UP TO 14 WK, Promoter: NONE USED) 6.4%, 4.8%, 25%, p<0.1; (Carcinogen: AZOXYMETHANE, 25843-45-2, Dose [Inhibitor]: 0, 200 PPM IN DIET BEGINNING 2 WK PRIOR TO CARCINOGEN TREATMENT AND CONTINUING FOR 52 WK (STUDY DURATION: 54 WK), Route [Inhibitor]: ORAL, Species: RAT, Strain/Sex: F344/MALE, Target Tissue: Type of Lesion: COLON: ADENOCARCINOMA, Dose [Carcinogen]: 15 MG/KG BW 1/WK FOR 2 WK, Promoter: NONE USED) 78%, 53%, 32%, p<0.05; (Carcinogen: AZOXYMETHANE, 25843-45-2, Dose [Inhibitor]: 0, 250 PPM IN DIET FOR 13 WK BEGINNING 36 WK POST LAST CARCINOGEN DOSE (STUDY DURATION: 49 WK), Route [Inhibitor]: ORAL, Species: RAT, Strain/Sex: F344/MALE, Target Tissue: Type of Lesion: COLON: ADENOMA, Dose [Carcinogen]: 12 MG/KG BW IN 0.9% SALINE TWICE, Promoter: CHOLIC ACID, 81-25-4) 81%, 94%, -16%, not significant; (Carcinogen: AZOXYMETHANE, 25843-45-2, Dose [Inhibitor]: 0, 250 PPM IN DIET FOR 13 WK BEGINNING 36 WK POST LAST CARCINOGEN DOSE (STUDY DURATION: 49 WK), Route [Inhibitor]: ORAL, Species: RAT, Strain/Sex: F344/MALE, Target Tissue: Type of Lesion: SMALL INTESTINE: ADENOCARCINOMA, Dose [Carcinogen]: 12 MG/KG BW IN 0.9% SALINE TWICE, Promoter: CHOLIC ACID, 81-25-4) 23%, 19%, 17%, not significant; (Carcinogen: AZOXYMETHANE, 25843-45-2, Dose [Inhibitor]: 0, 250 PPM IN DIET FOR 13 WK BEGINNING 36 WK POST LAST CARCINOGEN DOSE (STUDY DURATION: 49 WK), Route [Inhibitor]: ORAL, Species: RAT, Strain/Sex: F344/MALE, Target Tissue: Type of Lesion: SMALL INTESTINE: ADENOMA, Dose [Carcinogen]: 12 MG/KG BW IN 0.9% SALINE TWICE, Promoter: CHOLIC ACID, 81-25-4) 17%, 47%, -176%, p<0.05.
